{
  "source": "patent US5648386A",
  "about": "(priority 1990, dated 1997)",
  "key": {"lambs": {"system": "lambs", "experiment": "performance enhancing effect in lambs (feed, 6 weeks)", "assay_type": "in vivo, Suffolk×Galway wether lambs", "settings": "for Weight of carcass / Final weight / Composition of carcass tissue (without bones): Protein / Feed utilization in g of weight gain per kg of feed / Composition of carcass tissue (without bones): Fat / Weight gain in g per day / Composition of carcass tissue (without bones): Water: 2 mg/kg in feed, 6 weeks; for Starting weight: baseline, control 34.4", "excerpt": "2. […] At the same time steps were taken to ensure that the lambs were offered at least 10% excess feed during the experimental period. The lambs were then killed and the following parameters were obtained: […]"}, "[1]": {"experiment": "overall comparison of the enantiomers (biological effects, use to risk)", "assay_type": "in vivo", "settings": "(-)- vs (+)-cimaterol, words"}, "[2]": {"experiment": "acute toxicity in male and female mice i.v.", "assay_type": "in vivo", "settings": "mouse, in vivo, iv, male and female mice, death within 14 days, range in parentheses", "protocol": "(§1) 1. […] They were also compared for their acute toxicity.\n(§2) The acute toxicity was measured in male and female mice weighing between 20 and 25 g after intravenous administration. An LD50 was calculated by […] from the percentage of animals which died within 14 days of being given the substance."}, "fat cells": {"system": "fat cells", "experiment": "β-mimetic effect on fat cells: lipolytic effect (free fatty acids in blood) in conscious rabbits i.v.", "assay_type": "in vivo", "settings": "for ED150 (dose which resulted in a 50% increase in the free fatty acid in the blood): conscious rabbits, linear regression, range in parentheses", "excerpt": "as §1\nThe β-mimetic effect on the fat cells was investigated in terms of a lipolytic effect on conscious rabbits after i.v. administration."}, "[3]": {"system": "β-receptors of the skeletal musculature", "experiment": "β-mimetic effect on skeletal musculature (BOWMAN and NOTT): tension of incompletely tetanically contracting M. soleus of anaesthetized cats i.v.", "assay_type": "in vivo", "settings": "for Reduction in tension in % (x): anaesthetized cats, M. soleus, n=5", "protocol": "as §1\nThe β-mimetic effect on the skeletal musculature was tested using the method of BOWMAN and NOTT (Pharmacol. Rev. 21, 27 (1969)). This investigates the influence on the tension of the incompletely tetanically contracting M. soleus of anaesthetized cats after i.v. administration."}, "mice": {"system": "mice", "experiment": "acute toxicity in male and female mice i.v.", "assay_type": "in vivo", "protocol": "as §1, §2"}, "animals": {"system": "animals", "settings": "U.S. Pat. No. 4,407,819; cited from earlier work"}},
  "note": "Entries after “also recorded” stand apart in the source; their conditions may differ.",
  "data": [
    {"smiles": "CC(C)NCC(O)c1ccc(N)c(C#N)c1", "note": "(single isomer, unassigned; (-)) [(-)-Cimaterol, (-)-1-(4'-Amino-3'-cyano-phenyl)-2-isopropylamino-ethanol]", "values": [
      {"measurement": "Weight of carcass", "setting": "lambs; control 22.8, 2 mg/kg", "value": 24.1, "unit": "kg"},
      {"measurement": "Final weight", "setting": "lambs; control 45.4, 2 mg/kg", "value": 48.0, "unit": "kg"},
      {"measurement": "Composition of carcass tissue (without bones): Protein", "setting": "lambs; control 140, 2 mg/kg", "value": 177, "unit": "g per kg"},
      {"measurement": "Feed utilization in g of weight gain per kg of feed", "setting": "lambs; control 190, 2 mg/kg", "value": "220 g of weight gain per kg of fee"},
      {"measurement": "Composition of carcass tissue (without bones): Fat", "setting": "lambs; control 248, 2 mg/kg", "value": 252, "unit": "g per kg"},
      {"measurement": "Weight gain in g per day", "setting": "lambs; control 259, 2 mg/kg", "value": 324, "unit": "g per day"},
      {"measurement": "Composition of carcass tissue (without bones): Water", "setting": "lambs; control 501, 2 mg/kg", "value": 557, "unit": "g per kg"},
      {"measurement": "Starting weight", "setting": "lambs", "value": 34.2, "unit": "kg"},
      {"measurement": "carrier of the biological / desired effects of cimaterol", "setting": "[1]", "value": "the only carrier of the biological effects of cimaterol; also recorded: the sole carrier of the desired effects"},
      {"measurement": "LD50 at 336 h", "setting": "[2]", "value": 74.8, "unit": "mg/kg"},
      {"measurement": "ED150 (dose which resulted in a 50% increase in the free fatty acid in the blood)", "setting": "fat cells", "value": "0.098 (0.078-0.118) μg/kg"},
      {"measurement": "times more effective than the corresponding D-enantiomer on the β-receptors of the skeletal musculature", "setting": "[3]; L- vs D-enantiomer, cats", "value": "more than 100 times"},
      {"measurement": "Reduction in tension in % (x)", "setting": "[3]; dose 0.5 μg/kg", "value": 42.1, "unit": "%"}
    ]},
    {"smiles": "CC(C)NCC(O)c1ccc(N)c(C#N)c1", "note": "(single isomer, unassigned; (+)) [(+)-Cimaterol, (+)-1-(4'-Amino-3'-cyano-phenyl)-2-isopropylamino-ethanol]", "values": [
      {"measurement": "Weight of carcass", "setting": "lambs; control 22.8, 2 mg/kg", "value": 22.5, "unit": "kg"},
      {"measurement": "Final weight", "setting": "lambs; control 45.4, 2 mg/kg", "value": 45.7, "unit": "kg"},
      {"measurement": "Composition of carcass tissue (without bones): Protein", "setting": "lambs; control 140, 2 mg/kg", "value": 151, "unit": "g per kg"},
      {"measurement": "Feed utilization in g of weight gain per kg of feed", "setting": "lambs; control 190, 2 mg/kg", "value": "184 g of weight gain per kg of fee"},
      {"measurement": "Composition of carcass tissue (without bones): Fat", "setting": "lambs; control 248, 2 mg/kg", "value": 341, "unit": "g per kg"},
      {"measurement": "Weight gain in g per day", "setting": "lambs; control 259, 2 mg/kg", "value": 268, "unit": "g per day"},
      {"measurement": "Composition of carcass tissue (without bones): Water", "setting": "lambs; control 501, 2 mg/kg", "value": 501, "unit": "g per kg"},
      {"measurement": "Starting weight", "setting": "lambs", "value": 34.8, "unit": "kg"},
      {"measurement": "LD50", "setting": "mice; male and female mice, death within 14 days, range in parentheses, 20160 min", "value": "86.3 (80.6-92.3) mg/kg"},
      {"measurement": "toxicity of the D-enantiomer compared with the L-enantiomer", "setting": "mice; mice, words", "value": "the same toxicity as the L-enantiomer"},
      {"measurement": "doses needed to achieve a 50% increase in the free fatty acids, times greater than those of the corresponding L-enantiomer", "setting": "fat cells; D- vs L-enantiomer, rabbits", "value": "about 100 times"},
      {"measurement": "ED150 (dose which resulted in a 50% increase in the free fatty acid in the blood)", "setting": "fat cells", "value": "9.770 (7.440-12.700) μg/kg"},
      {"measurement": "Reduction in tension in % (x)", "setting": "[3]; dose 50.0 μg/kg", "value": 33.7, "unit": "%"}
    ]},
    {"smiles": "CC(C)NCC(O)c1ccc(N)c(C#N)c1", "note": "(racemic) [Cimaterol, 1-(4'-amino-3'-cyano-phenyl)-2-isopropylaminoethanol, reference compound]", "values": [
      {"measurement": "Weight of carcass", "setting": "lambs; control 22.8", "value": 24.0, "unit": "kg"},
      {"measurement": "Final weight", "setting": "lambs; control 45.4", "value": 46.0, "unit": "kg"},
      {"measurement": "Composition of carcass tissue (without bones): Protein", "setting": "lambs; control 140", "value": 167, "unit": "g per kg"},
      {"measurement": "Feed utilization in g of weight gain per kg of feed", "setting": "lambs; control 190", "value": "196 g of weight gain per kg of fee"},
      {"measurement": "Composition of carcass tissue (without bones): Fat", "setting": "lambs; control 248", "value": 265, "unit": "g per kg"},
      {"measurement": "Weight gain in g per day", "setting": "lambs; control 259", "value": 275, "unit": "g per day"},
      {"measurement": "Composition of carcass tissue (without bones): Water", "setting": "lambs; control 501", "value": 556, "unit": "g per kg"},
      {"measurement": "Starting weight", "setting": "lambs", "value": 34.9, "unit": "kg"},
      {"measurement": "performance-enhancing effect", "setting": "animals", "value": "performance-enhancing effect"},
      {"measurement": "Reduction in tension in % (x)", "setting": "[3]; dose 0.5 μg/kg", "value": 38.3, "unit": "%"}
    ]}
  ]
}
